# According to ChEMBL document CHEMBL1155520, “Novel 8a-aza-8a-homoerythromycin--4''-(3-substituted-amino)propionates with broad spectrum antibacterial activity” (2010):
# Assays:
# Type in all cases: functional
# Streptococcus pneumoniae [1] = assay: Antimicrobial activity against inducible macrolide and constitutive lincosamide, streptogramin-resistant Streptococcus pneumoniae 4636
# Streptococcus pneumoniae [2] = assay: Antimicrobial activity against macrolide-sensitive Streptococcus pneumoniae SPO 30
# Streptococcus pneumoniae [3] = assay: Antimicrobial activity against macrolide-resistant Streptococcus pneumoniae Ci137
# Streptococcus pyogenes [4] = assay: Antimicrobial activity against macrolide-sensitive Streptococcus pyogenes 3665
# Streptococcus pyogenes [5] = assay: Antimicrobial activity against inducible macrolide, lincosamide, streptogramin-resistant Streptococcus pyogenes Finland 11
# Haemophilus influenzae = assay: Antimicrobial activity against Haemophilus influenzae ATCC 49247
# Staphylococcus aureus = assay: Antimicrobial activity against macrolide-sensitive Staphylococcus aureus ATCC 13709
Compound,MIC (Streptococcus pneumoniae [1]) [µg/mL],MIC (Streptococcus pneumoniae [2]) [µg/mL],MIC (Streptococcus pneumoniae [3]) [µg/mL],MIC (Streptococcus pyogenes [4]) [µg/mL],MIC (Streptococcus pyogenes [5]) [µg/mL],MIC (Haemophilus influenzae) [µg/mL],MIC (Staphylococcus aureus) [µg/mL]
CC[C@H]1OC(=O)[C@H](C)[C@@H](O[C@H]2C[C@@](C)(OC)[C@@H](OC(=O)CCNCC(=O)Nc3ccc([N+](=O)[O-])cc3)[C@H](C)O2)[C@H](C)[C@@H](O[C@@H]2O[C@H](C)C[C@H](N(C)C)[C@H]2O)[C@](C)(OC)C[C@@H](C)NC(=O)[C@H](C)[C@@H](O)[C@]1(C)O,16,< 0.13,2,< 0.13,4,2,1
CC[C@H]1OC(=O)[C@H](C)[C@@H](O[C@H]2C[C@@](C)(OC)[C@@H](OC(=O)CCN[C@@H](C)c3ccc([N+](=O)[O-])cc3)[C@H](C)O2)[C@H](C)[C@@H](O[C@@H]2O[C@H](C)C[C@H](N(C)C)[C@H]2O)[C@](C)(OC)C[C@@H](C)NC(=O)[C@H](C)[C@@H](O)[C@]1(C)O,> 32,< 0.13,2,< 0.13,4,32,2
CC[C@H]1OC(=O)[C@H](C)[C@@H](O[C@H]2C[C@@](C)(OC)[C@@H](OC(=O)CCN[C@H](C)c3ccc([N+](=O)[O-])cc3)[C@H](C)O2)[C@H](C)[C@@H](O[C@@H]2O[C@H](C)C[C@H](N(C)C)[C@H]2O)[C@](C)(OC)C[C@@H](C)NC(=O)[C@H](C)[C@@H](O)[C@]1(C)O,> 32,< 0.13,2,< 0.13,4,32,1
CC[C@H]1OC(=O)[C@H](C)[C@@H](O[C@H]2C[C@@](C)(OC)[C@@H](OC(=O)CCN[C@@H](C)C(=O)Nc3ccc([N+](=O)[O-])cc3)[C@H](C)O2)[C@H](C)[C@@H](O[C@@H]2O[C@H](C)C[C@H](N(C)C)[C@H]2O)[C@](C)(OC)C[C@@H](C)NC(=O)[C@H](C)[C@@H](O)[C@]1(C)O,16,< 0.13,0.5,< 0.13,1,2,0.5
CC[C@H]1OC(=O)[C@H](C)[C@@H](O[C@H]2C[C@@](C)(OC)[C@@H](OC(=O)CCN3CCN(c4ccc([N+](=O)[O-])cc4)CC3)[C@H](C)O2)[C@H](C)[C@@H](O[C@@H]2O[C@H](C)C[C@H](N(C)C)[C@H]2O)[C@](C)(OC)C[C@@H](C)NC(=O)[C@H](C)[C@@H](O)[C@]1(C)O,8,< 0.13,1,< 0.13,8,2,2
CC[C@H]1OC(=O)[C@H](C)[C@@H](O[C@H]2C[C@@](C)(OC)[C@@H](OC(=O)CCNCC(=O)Nc3cnc4ccccc4c3)[C@H](C)O2)[C@H](C)[C@@H](O[C@@H]2O[C@H](C)C[C@H](N(C)C)[C@H]2O)[C@](C)(OC)C[C@@H](C)NC(=O)[C@H](C)[C@@H](O)[C@]1(C)O,> 32,< 0.13,2,< 0.13,16,> 32,2
CC[C@H]1OC(=O)[C@H](C)[C@@H](O[C@H]2C[C@@](C)(OC)[C@@H](OC(=O)CCNCC(=O)Nc3cccc4ncccc34)[C@H](C)O2)[C@H](C)[C@@H](O[C@@H]2O[C@H](C)C[C@H](N(C)C)[C@H]2O)[C@](C)(OC)C[C@@H](C)NC(=O)[C@H](C)[C@@H](O)[C@]1(C)O,> 32,< 0.13,16,0.25,32,> 32,8
CC[C@H]1OC(=O)[C@H](C)[C@@H](O[C@H]2C[C@@](C)(OC)[C@@H](OC(=O)CCNCC(=O)Nc3ccc4cccnc4c3)[C@H](C)O2)[C@H](C)[C@@H](O[C@@H]2O[C@H](C)C[C@H](N(C)C)[C@H]2O)[C@](C)(OC)C[C@@H](C)NC(=O)[C@H](C)[C@@H](O)[C@]1(C)O,> 32,< 0.13,4,< 0.13,16,> 32,2
CC[C@H]1OC(=O)[C@H](C)[C@@H](O[C@H]2C[C@@](C)(OC)[C@@H](OC(=O)CCNCCNc3cncc([N+](=O)[O-])c3)[C@H](C)O2)[C@H](C)[C@@H](O[C@@H]2O[C@H](C)C[C@H](N(C)C)[C@H]2O)[C@](C)(OC)C[C@@H](C)NC(=O)[C@H](C)[C@@H](O)[C@]1(C)O,4,< 0.13,0.5,< 0.13,0.25,4,0.25
CC[C@H]1OC(=O)[C@H](C)[C@@H](O[C@H]2C[C@@](C)(OC)[C@@H](OC(=O)CCNCCNc3cccc4ccccc34)[C@H](C)O2)[C@H](C)[C@@H](O[C@@H]2O[C@H](C)C[C@H](N(C)C)[C@H]2O)[C@](C)(OC)C[C@@H](C)NC(=O)[C@H](C)[C@@H](O)[C@]1(C)O,> 32,< 0.13,2,< 0.13,4,–,1
